Laboratory results published in patent US20250228239A1, “MOLECULES HAVING PESTICIDAL UTILITY, AND INTERMEDIATES, COMPOSITIONS, AND PROCESSES, RELATED THERETO” (priority 2024, published 2025).
Where two headings read alike, the source gives them in different places.

Experiments:
[1] = test system: Beet Armyworm (Spodoptera exigua, LAPHEG); assay: Bioassays on Beet Armyworm (BAW), 128-well diet tray assay; type: in vivo; conditions: Spodoptera exigua
Procedure, shortened: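 Second-instar larvae, one to five per well, were placed on artificial diet surface-treated with 50 μg/cm^2 compound in 90:10 acetone-water, eight wells per treatment. Trays were held 5–7 days at 25 °C, 14:10 light-dark. Percent mortality per well was averaged over eight wells.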

[2] = test system: Cabbage Looper (Trichoplusia ni, TRIPNI); assay: Bioassays on Cabbage Looper (CL), 128-well diet tray assay; type: in vivo; conditions: Trichoplusia ni
Procedure, shortened: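 Diet tray, 2nd instar, 1–5 larvae/well; 50 μg/cm^2 compound surface-applied (acetone:water 90:10), dried; 8 wells/treatment; 25° C, 14:10 L:D, 5–7 d; % mortality, mean of 8 wells.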

[3] = Beet Armyworm, Table ABC / ABC-DP rating, read-out: BAW rating
[4] = Cabbage Looper, Table ABC / ABC-DP rating, read-out: CL rating
[5] = Beet Armyworm, rating class, read-out: BAW
[6] = Cabbage Looper, rating class, read-out: CL
[7] = Table ABC: Biological Results, species BAW, read-out: BAW
[8] = Table ABC: Biological Results, species CL, read-out: CL

| Structure (SMILES) | pest or weed control at 50 µg/cm2 [1, 5] [%] | pest or weed control at 50 µg/cm2 [2, 6] [%] | other results |
| --- | --- | --- | --- |
| C=C(F)C(=O)Nc1c(F)ccc(NC(=O)c2cc(NC(=O)[C@H]3[C@H](c4cc(Cl)c(Cl)c(Cl)c4)C3(Cl)Cl)ccc2Cl)c1F [F1872, 2-Chloro-5-((1R,3R)-2,2-dichloro-3-(3,4,5-trichlorophenyl)cyclopropane-1-carboxamido)-N-(2,4-difluoro-3-(2-fluoroacrylamido)phenyl)benzamide] | – | – | pest or weed control at 50 µg/cm2 [1, 3]: 50 to 100%; pest or weed control at 50 µg/cm2 [2, 4]: 50 to 100% |
| O=C(Nc1ccc(F)c(NC(=O)C(F)(F)C(F)(F)C(F)(F)F)c1F)c1cc(NC(=O)[C@H]2[C@H](c3cc(Cl)c(Cl)c(Cl)c3)C2(Cl)Cl)ccc1Cl [F1652, 2-Chloro-5-((1R,3R)-2,2-dichloro-3-(3,4,5-trichlorophenyl)cyclopropane-1-carboxamido)-N-(2,4-difluoro-3-(2,2,3,3,4,4,4-heptafluorobutanamido)phenyl)benzamide] | 50 to 100 | 50 to 100 | – |
| O=C(Nc1c(F)ccc([N+](=O)[O-])c1F)c1cc(NC(=O)[C@H]2[C@H](c3cc(Cl)c(Cl)c(Cl)c3)C2(Cl)Cl)cc(F)c1F [F1765, 5-((1R,3R)-2,2-Dichloro-3-(3,4,5-trichlorophenyl)cyclopropane-1-carboxamido)-N-(2,6-difluoro-3-nitrophenyl)-2,3-difluorobenzamide] | 50 to 100 | 50 to 100 | – |
| O=C(Nc1cc(NC(=O)C(F)F)c(F)cc1F)c1cc(NC(=O)[C@H]2[C@H](c3ccc(F)c(C(F)(F)F)c3)C2(Cl)Cl)cc(F)c1F [F1586, 5-((1R,3R)-2,2-Dichloro-3-(4-fluoro-3-(trifluoromethyl)phenyl)cyclopropane-1-carboxamido)-N-(5-(2,2-difluoroacetamido)-2,4-difluorophenyl)-2,3-difluorobenzamide] | 50 to 100 | 50 to 100 | – |
| Cc1cc(NC(=O)[C@H]2[C@H](c3cc(Cl)c(Cl)c(Cl)c3)C2(Cl)Cl)cc(C(=O)Nc2c(F)ccc(NC(=O)C(F)F)c2F)c1Cl [F1431, 2-Chloro-5-((1R,3R)-2,2-dichloro-3-(3,4,5-trichlorophenyl)cyclopropane-1-carboxamido)-N-(3-(2,2-difluoroacetamido)-2,6-difluorophenyl)-3-methylbenzamide] | 50 to 100 | 50 to 100 | – |
| CC(C)(C)OC(=O)Nc1c(F)ccc(NC(=O)c2cc(NC(=O)[C@H]3[C@H](c4cc(Br)cc(C(F)(F)F)c4)C3(Cl)Cl)ccc2Cl)c1F (relative stereo) [F1073, trans-tert-Butyl-(3-(5-(3-(3-bromo-5-(trifluoromethyl)phenyl)-2,2-dichlorocyclopropane-1-carboxamido)-2-chlorobenzamido)-2,6-difluorophenyl)carbamate] | – | – | pest or weed control at 50 µg/cm2 [1, 7]: 50 to 100%; pest or weed control at 50 µg/cm2 [2, 8]: 50 to 100% |
| Cc1cc(NC(=O)[C@H]2[C@H](c3ccc(Cl)c(Cl)c3)C2(Cl)Cl)cc(C(=O)Nc2c(F)ccc(NC(=O)C(F)F)c2F)c1Cl [F1429, 2-Chloro-5-((1R,3R)-2,2-dichloro-3-(3,4-dichlorophenyl)cyclopropane-1-carboxamido)-N-(3-(2,2-difluoroacetamido)-2,6-difluorophenyl)-3-methylbenzamide] | 50 to 100 | 50 to 100 | – |
| Cc1cc(NC(=O)[C@H]2[C@H](c3cc(Cl)c(Cl)c(Cl)c3)C2(Cl)Cl)cc(C(=O)Nc2cc(NC(=O)C(F)(F)F)c(F)cc2F)c1Cl [F1499, 2-Chloro-5-((1R,3R)-2,2-dichloro-3-(3,4,5-trichlorophenyl)cyclopropane-1-carboxamido)-N-(2,4-difluoro-5-(2,2,2-trifluoroacetamido)phenyl)-3-methylbenzamide] | 50 to 100 | 50 to 100 | – |
| O=C(Nc1ccc(F)c(NC(=O)C(F)(F)F)c1F)c1cc(NC(=O)[C@H]2[C@H](c3ccc(Cl)c(Cl)c3)C2(Cl)Cl)cc(F)c1Cl [F1288, 2-Chloro-5-((1R,3R)-2,2-dichloro-3-(3,4-dichlorophenyl)cyclopropane-1-carboxamido)-N-(2,4-difluoro-3-(2,2,2-trifluoroacetamido)phenyl)-3-fluorobenzamide] | – | – | pest or weed control at 50 µg/cm2 [1, 7]: 50 to 100%; pest or weed control at 50 µg/cm2 [2, 8]: 50 to 100% |
| O=C(Nc1c(F)ccc(NC(=O)C(F)(F)F)c1F)c1cc(NC(=O)[C@H]2[C@H](c3ccc(F)c(C(F)(F)F)c3)C2(Cl)Cl)ccc1Cl [F1538, 2-Chloro-5-((1R,3R)-2,2-dichloro-3-(4-fluoro-3-(trifluoromethyl)phenyl)cyclopropane-1-carboxamido)-N-(2,6-difluoro-3-(2,2,2-trifluoroacetamido)phenyl)benzamide] | 50 to 100 | 50 to 100 | – |
| O=C(Nc1c(F)ccc(NC(=O)C(F)(F)C(F)F)c1F)c1cc(NC(=O)[C@H]2[C@H](c3ccc(Cl)c(Cl)c3)C2(Cl)Cl)ccc1Cl [F1535, 2-Chloro-5-((1R,3R)-2,2-dichloro-3-(3,4-dichlorophenyl)cyclopropane-1-carboxamido)-N-(2,6-difluoro-3-(2,2,3,3-tetrafluoropropanamido)phenyl)benzamide] | 50 to 100 | 50 to 100 | – |
| O=C(NCC(F)(F)F)NNC(=O)c1cc(NC(=O)[C@H]2[C@H](c3cc(Cl)cc(Cl)c3)C2(Cl)Cl)ccc1Cl (relative stereo) [F2535, trans-2-(2-chloro-5-(2,2-dichloro-3-(3,5-dichlorophenyl)cyclopropane-1-carboxamido)benzoyl)-N-(2,2,2-trifluoroethyl)hydrazine-1-carboxamide] | – | – | pest or weed control at 50 µg/cm2 [1, 3]: 50 to 100%; pest or weed control at 50 µg/cm2 [2, 4]: 50 to 100% |
| O=C(Nc1ccc(F)cc1NC(=O)C(F)(F)F)c1cc(NC(=O)[C@H]2[C@H](c3ccc(Cl)c(Cl)c3)C2(Cl)Cl)ccc1Cl (relative stereo) [F1121, trans-2-Chloro-5-(2,2-dichloro-3-(3,4-dichlorophenyl)cyclopropane-1-carboxamido)-N-(4-fluoro-2-(2,2,2-trifluoroacetamido)phenyl)benzamide] | – | – | pest or weed control at 50 µg/cm2 [1, 7]: 50 to 100%; pest or weed control at 50 µg/cm2 [2, 8]: 50 to 100% |
| O=C(Nc1c(F)ccc(NC(=O)C(F)(F)F)c1F)c1cc(NC(=O)[C@H]2[C@H](c3ccc(Cl)c(Cl)c3)C2(Cl)Cl)cc(F)c1F [F1578, 5-((1R,3R)-2,2-Dichloro-3-(3,4-dichlorophenyl)cyclopropane-1-carboxamido)-N-(2,6-difluoro-3-(2,2,2-trifluoroacetamido)phenyl)-2,3-difluorobenzamide] | 50 to 100 | 50 to 100 | – |
| Cc1cc(NC(=O)[C@H]2[C@H](c3ccc(F)c(C(F)(F)F)c3)C2(Cl)Cl)cc(C(=O)Nc2c(F)ccc(NC(=O)C(F)(F)F)c2F)c1Cl [F1469, 2-Chloro-5-((1R,3R)-2,2-dichloro-3-(4-fluoro-3-(trifluoromethyl)phenyl)cyclopropane-1-carboxamido)-N-(2,6-difluoro-3-(2,2,2-trifluoroacetamido)phenyl)-3-methylbenzamide] | 50 to 100 | 50 to 100 | – |
| Nc1c(F)ccc(NC(=O)c2cc(NC(=O)[C@H]3[C@H](c4ccc(Cl)c(C(F)(F)F)c4)C3(Cl)Cl)ccc2Cl)c1F [F1631, N-(3-Amino-2,4-difluorophenyl)-2-chloro-5-((1R,3R)-2,2-dichloro-3-(4-chloro-3-(trifluoromethyl)phenyl)cyclopropane-1-carboxamido)benzamide] | 50 to 100 | 50 to 100 | – |
| O=C(Nc1c(F)ccc(NC(=O)c2cc(NC(=O)[C@H]3[C@H](c4ccc(Cl)c(Cl)c4)C3(Cl)Cl)ccc2Cl)c1F)c1ccns1 [F1672] | 50 to 100 | 50 to 100 | – |
| CC(F)(F)CCC(=O)Nc1c(F)ccc(NC(=O)c2cc(NC(=O)[C@H]3[C@H](c4ccc(Cl)c(Cl)c4)C3(Cl)Cl)ccc2Cl)c1F [F1860, 2-Chloro-5-((1R,3R)-2,2-dichloro-3-(3,4-dichlorophenyl)cyclopropane-1-carboxamido)-N-(3-(4,4-difluoropentanamido)-2,4-difluorophenyl)benzamide] | – | – | pest or weed control at 50 µg/cm2 [1, 3]: 50 to 100%; pest or weed control at 50 µg/cm2 [2, 4]: 50 to 100% |
| CN(NC(=O)c1cc(NC(=O)[C@H]2[C@H](c3cc(Cl)cc(Cl)c3)C2(Cl)Cl)ccc1Cl)C(=O)C1CC1(F)F (relative stereo) [F2534, trans-2,2-Dichloro-N-(4-chloro-3-(2-(2,2-difluorocyclopropane-1-carbonyl)-2-methylhydrazine-1-carbonyl)phenyl)-3-(3,5-dichlorophenyl)cyclopropane-1-carboxamide] | – | – | pest or weed control at 50 µg/cm2 [1, 3]: 50 to 100%; pest or weed control at 50 µg/cm2 [2, 4]: 50 to 100% |
| C#CCNc1c(F)ccc(NC(=O)c2cc(NC(=O)[C@H]3[C@H](c4ccc(F)c(C(F)(F)F)c4)C3(Cl)Cl)ccc2Cl)c1F [F1807, 2-Chloro-5-((1R,3R)-2,2-dichloro-3-(4-fluoro-3-(trifluoromethyl)phenyl)cyclopropane-1-carboxamido)-N-(2,4-difluoro-3-(prop-2-yn-1-ylamino)phenyl)benzamide] | – | – | pest or weed control at 50 µg/cm2 [1, 3]: 50 to 100%; pest or weed control at 50 µg/cm2 [2, 4]: 50 to 100% |
| Nc1cc(NC(=O)c2cc(NC(=O)[C@H]3[C@H](c4ccc(F)c(C(F)(F)F)c4)C3(Cl)Cl)ccc2Cl)c(F)cc1F [F1566, N-(5-Amino-2,4-difluorophenyl)-2-chloro-5-((1R,3R)-2,2-dichloro-3-(4-fluoro-3-(trifluoromethyl)phenyl)cyclopropane-1-carboxamido)benzamide] | 50 to 100 | 50 to 100 | – |
